The values that follow are results of earlier work, collected in patent US20200275650A1, “NOVEL POLYMER COATED CHLO[…]” (priority 2017, published 2020).

The structures appear in SMILES notation.

For this data set the following is noted: technical chlorothalonil; well documented.

In the case of `N#Cc1c(Cl)c(Cl)c(Cl)c(C#N)c1Cl` [technical chlorothalonil, chlorothalonil], the “Median Lethal Concentration (acute inhalation toxicity)” value is on record as 0.1 mg/L.
